Results as given in paper PMC9021956, “Screening and Identification of HBV Epitopes Restricted by Multiple Prevalent HLA-A Allotypes” (Frontiers in Immunology, 2022).

How the values were obtained:
HLA-A2402 = HLA-A2402 (Homo sapiens, UniProt P04439, D101N/D140Y/D185E/E176V/E190D/F33S/G103R/G107R/I119L/I121M/I306V/K335N/L105A/L180Q/L300P/N151K/N90K/Q86E/Q94H/R106L/R138H/R89G/T104I/T345S/V100E/W191G/Y123F); assay: cell-based; assay type: binding
How it was run: (§1)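 HMy2.CIR cells stably transfected with the HLA-A allele, acid-stripped (citrate/phosphate, pH3.3), neutralised and plated with β2-m (1 μg/mL); unlabeled peptide competes with the allele's FITC reference peptide. FITC+ cells read by flow cytometry; competitive binding % normalised to no-peptide and reference-only wells; IC50 reported.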

HLA-A3101 = HLA-A3101 (Homo sapiens, UniProt P04439, A270S/D185E/E176V/E277Q/F33T/G231S/G80R/H175R/I121M/I218V/I322F/K168Q/L300P/L318F/M331R/P217A/Q94H/R138Q/T323A/T345S/T97I/V358M); assay: Peptide competitive binding assay, transfected HMy2.CIR cells, reference ATFQFK(FITC)VER; conditions: 24 hours, flow cytometry
How it was run: as §1

## CC(C)C[C@H](NC(=O)[C@@H](NC(=O)[C@H](Cc1ccccc1)NC(=O)[C@@H](NC(=O)[C@@H](N)CCCCN)C(C)C)C(C)C)C(=O)NCC(=O)NCC(=O)N[C@@H](CS)C(=O)N[C@@H](CCCNC(=N)N)C(=O)O [Epitope P63]
HLA-A2402
  IC50: > 15 µM
HLA-A2402; HLA-A2402 HMy2.CIR cells, competitor peptide 5μM, 24 hours, flow cytometry
  inhibition at 5 µM: 9.68%
HLA-A2402; HLA-A2402 HMy2.CIR cells, competitor peptide 15μM, 24 hours, flow cytometry
  inhibition at 15 µM: 4.38%
HLA-A3101; HLA-A3101 HMy2.CIR cells, competitor peptide 5μM
  inhibition at 5 µM: 35.4%
HLA-A3101; HLA-A3101 HMy2.CIR cells, competitor peptide 15μM
  inhibition at 15 µM: 55.4%
HLA-A3101; transfected HMy2.CIR cells expressing HLA-A3101, unlabeled peptide competes with FITC-labeled reference peptide, class by IC50
  Affinity: inter
